From patent publication US9969719B2, “Substituted 2-hydrogen-pyrazole derivative serving as anticancer drug” (CHIA TAI TIANQING PHARMACEUTICAL GROUP CO., LTD., priority 2015, dated 2018) come the findings set out here.

SMILES strings stand for the structures. Where two headings read alike, the source gives them in different places.

In one data set the target is T1, CDK4/cyclin D1 (Homo sapiens, UniProt P11802).
T1 construct: purchased Life Technologies
Description: CDK4/cyclin D1 Lance Ultra enzyme assay. It counts as biochemical. The following applies: for inhibitory activities against CDK4 compared with the reference compounds: versus Palbociclib and LY2835219, in words; for IC50: 350 μM ATP, 180 minutes. On the procedure:
(§1) The experimental materials included CDK2/cyclin A, CDK4/cyclin D1, CDK6/cyclin D1 (Life Technologies); ULight-labeled polypeptide substrates, i.e., ULight-4E-BP1 and ULight-MBP (PerkinElmer); the europium-labeled antibody against anti-myelin basic protein and europium-labeled rabbit antibody (PerkinElmer); and Envision® Multilabel Plate Reader (PerkinElmer) used for signal detection.
(§2) The compounds to be tested were diluted three times so as to be at ten gradually varied concentrations.
The dilutions of the compounds were dissolved in enzyme buffer, respectively. The components of the buffer included 50 mM hydroxyethylpiperazine ethanesulfonic acid solution (pH 7.5), 1 mM ethylenediaminetetraacetic acid, 10 mM magnesium chloride, 0.01% Brij-35, and 2 mM dithiothreitol. After the reaction started, the OptiPlate 384-well plate was sealed with top heat-sealing film TopSeal-A and incubated at room temperature for 180 minutes. • The Enzyme Reaction System of CDK6/Cyclin D1
(§3) The stop buffer of the enzyme reaction was prepared by dissolving EDTA in a one-fold dilution of the assay buffer. The reaction was terminated at room temperature for 5 minutes. To each of the reaction systems of CDK2/cyclin A, CDK4/cyclin D1 and CDK6/cyclin D1 was added 5 μL assay mixture (provided with antibody the europium-labeled against anti-myelin basic protein and the europium-labeled rabbit antibody, respectively). They were incubated at room temperature for 60 minutes. The reaction signals were detected by the EnVision instrument according to the principle of time-resolved fluorescence resonance energy transfer.

A further data set addresses T2, CDK6/cyclin D1 (Homo sapiens, UniProt Q00534).
T2 construct: purchased Life Technologies
Put plainly: CDK6/cyclin D1 Lance Ultra enzyme assay. The class given is biochemical. Particulars: for IC50: 250 μM ATP, 180 minutes; for inhibitory activities against CDK6 compared with the reference compounds: versus Palbociclib and LY2835219, in words. On the procedure:
as §1, §2
The dilutions of the compounds were dissolved in enzyme buffer, respectively. The components of the buffer included 50 mM hydroxyethylpiperazine ethanesulfonic acid solution (pH 7.5), 1 mM ethylenediaminetetraacetic acid, 10 mM magnesium chloride, 0.01% Brij-35, and 2 mM dithiothreitol. After the reaction started, the OptiPlate 384-well plate was sealed with top heat-sealing film TopSeal-A and incubated at room temperature for 180 minutes.
as §3

Another data set concerns MCF-7 cells. Put plainly: MCF-7 cell proliferation (CellTiter-Glo, 6 days). The following applies: for IC50: Homo sapiens, MCF7, proliferation, 6 days; for MCF-7/MDA-MB-436: ratio of the proliferation IC50 values; for inhibitory activities against the proliferation of MCF-7 cells compared with the reference compounds: versus Palbociclib and LY2835219, in words. The class given is cell-based, human. On the procedure: EnVision® Multilabel Plate Reader (PerkinElmer) was used.
MCF-7 cells were inoculated in a black 384-well plate by adding 45 μL of the cell suspension (containing 200 of MCF-7 cells) to each of the wells. The plate was incubated overnight in a carbon dioxide incubator.
(§4) A duplicate well test was performed. The medium was added to the middle plate in an amount of 49 μL per well. The gradient dilutions of the compounds were transferred in an amount of 1 μL per well to the middle plate at the corresponding positions, and the mixture was mixed and transferred to the cell plate in an amount of 5 μL per well. The cell plate was incubated in a carbon dioxide incubator for 6 days. Promega CellTiter-Glo reagent was added to the cell plate in an amount of 25 μL per well. The cell plate was incubated at room temperature for 10 minutes to stabilize the luminescence signal. EnVision® Multilabel Plate Reader (PerkinElmer) was used for signal detection.
For orientation: ATP-based viability assays read luminescence as a measure of living cells.

Another data set has as its system MDA-MB-436 cells. Description: MDA-MB-436 cell proliferation (CellTiter-Glo). It counts as cell-based. The following applies: Homo sapiens. As for the experimental part: RPMI 1640 medium, fetal bovine serum, penicillin/streptomycin were purchased from Promega (Madison, Wis.). The MCF-7 cell line and the MDA-MB-436 cell line were purchased from the European Collection of Authenticated Cell Cultures (ECACC). EnVision® Multilabel Plate Reader (PerkinElmer) was used.
as §4, with “The compounds to be tested were diluted three times using Bravo to the tenth concentration, i.e., diluted from 10 μM to 0.508 nM. A” for “A”
The IC50 values were obtained by curve fitting using four parameters (obtained from the 205 mode in XLFIT5, iDBS). Table 1 provides the inhibitory activities of the compounds of the invention against the proliferation of MCF-7 cells and MDA-MB-436 cells.

The test system of data set [1] is human breast cancer cell line MCF-7. It counts as in vivo. As for the experimental part: The in vivo pharmacodynamic study was carried out in human-based tumor cell line-derived xenografted (CDX) BALB/c nude mice, in which were subcutaneously implanted human breast cancer cell line MCF-7.
. All the cages, matts and water were disinfected before use. All the animals had free access to a standard certified commercial laboratory diet. A total of 100 mice were purchased from Shanghai BK Laboratory Animal Co., LTD for study. An estrogen tablet ([…], sustained release within 60 days) was subcutaneously implanted in the left next abdomen of each mice. After 3 days, the tumor cells (10×10^6 in 0.2 mL of phosphate buffer) were subcutaneously implanted in the right next abdomen of each mice for the tumor growth. The administration started when the average tumor volume reached about 150-200 mm^3. The test compounds were orally administered daily, the doses were shown as Table 5. The tumor volumes were measured with a two-dimensional caliper every three days, the volumes were expressed in cubic millimeters and calculated by the formula V=0.5a×b^2, wherein a and b were the major diameter and minor diameter of the tumor, respectively. Antitumor efficacy was determined by dividing an average increase of the tumor volumes of the animals treated with the compounds by an increase of the tumor volumes of the untreated animals.

A further data set has as its target T3, CDK2/cyclin A (Homo sapiens, UniProt P24941).
T3 construct: purchased Life Technologies
Put plainly: CDK2/cyclin A Lance Ultra enzyme assay. It counts as biochemical. Particulars: 25 μM ATP, 60 minutes. On the procedure: as §1, §2
The gradient dilutions of the compounds were dissolved in enzyme buffer, respectively. The components of the buffer included 50 mM hydroxyethylpiperazine ethanesulfonic acid solution (pH 7.5), 1 mM ethylenediaminetetraacetic acid, 10 mM magnesium chloride, 0.01% Brij-35, and 2 mM dithiothreitol. After the reaction started, the OptiPlate 384-well plate was sealed with top heat-sealing film TopSeal-A and incubated at room temperature for 60 minutes. • The Enzyme Reaction System of CDK4/Cyclin D1
as §3

A short description of data set [2]: Study of brain permeability after oral administration. The following applies: for Exposure in brain: 10 mg/kg oral. It counts as in vivo, SD rats. On the procedure:
SD rats were used as the test animals.
Twelve healthy 7- to 9-week-old adult male SD rats were purchased from Shanghai Slack Laboratory Animal Co., Ltd. A proper amount of the test compound was weighed to prepare a 0.5% methylcellulose suspension at 1 mg/mL. The rats received a single oral dose of 10 mg/kg. 0.5 h, 2 h, 8 h, and 24 hours after the administration, 3 rats were respectively killed, and their whole blood and brain tissues were collected. The plasma was prepared by centrifuging the whole blood (3000 g, 15 minutes, 4° C.). The samples of brain homogenate were prepared by mixing the brain tissues with a mixture of methanol and a phosphate buffer (methanol:phosphate buffer=1:2) as homogenate at a ratio of 5:1. The drug concentration of each sample was determined by LC/MS/MS, and AUC was calculated to evaluate the exposure.

Another data set relates to Caco-2 monolayer cells. Description: Caco-2 cell bi-directional permeability assessment. The following applies: Caco-2. On the technique in general: Caco-2 cells form a polarised layer with tight junctions and transporters.
A short description of data set [3]: Caco-2 cell bi-directional permeability assessment. Particulars: human, Caco-2, pH 7.4.
Description: (§5) The standard experimental conditions were as follows: • Test concentration: 2 μM (DMSO≤1%); • Number of replication: n=2; • Direction: bi-directional transportation, including two directions, i.e., A→B and B→A; • Incubation time: single time point, 2 hours; • Transport buffer: HBSS, pH 7.4; • Incubation conditions: 37° C., 5% CO2.
(§6) After the incubation, sample solutions taken from the dosing wells and the receiving wells were immediately mixed with a cold acetonitrile solution containing the internal standard. Concentrations of the test compounds in all samples (including the initial dosing solutions, the supernatants of the dosing wells and the receiving solutions) were determined by a LC/MS/MS method. The apparent permeability coefficients, the efflux ratios and other parameters were calculated.

T1 sequence (P11802 whole entry): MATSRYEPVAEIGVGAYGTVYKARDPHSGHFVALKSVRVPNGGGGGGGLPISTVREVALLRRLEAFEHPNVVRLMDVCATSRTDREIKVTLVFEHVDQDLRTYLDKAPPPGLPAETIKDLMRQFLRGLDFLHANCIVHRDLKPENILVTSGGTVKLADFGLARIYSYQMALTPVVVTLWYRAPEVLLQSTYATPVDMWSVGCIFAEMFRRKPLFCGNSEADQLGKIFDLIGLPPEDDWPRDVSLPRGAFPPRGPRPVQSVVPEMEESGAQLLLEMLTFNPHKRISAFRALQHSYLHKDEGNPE
T1 sequence (P24385 whole entry partner): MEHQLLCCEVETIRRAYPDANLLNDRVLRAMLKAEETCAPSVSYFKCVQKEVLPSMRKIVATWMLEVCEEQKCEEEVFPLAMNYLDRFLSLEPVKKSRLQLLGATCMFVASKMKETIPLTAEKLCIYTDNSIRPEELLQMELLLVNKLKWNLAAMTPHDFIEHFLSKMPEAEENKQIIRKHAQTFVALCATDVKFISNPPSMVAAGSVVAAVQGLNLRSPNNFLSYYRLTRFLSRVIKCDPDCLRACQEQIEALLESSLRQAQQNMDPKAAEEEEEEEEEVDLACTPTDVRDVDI
T2 sequence (Q00534 whole entry): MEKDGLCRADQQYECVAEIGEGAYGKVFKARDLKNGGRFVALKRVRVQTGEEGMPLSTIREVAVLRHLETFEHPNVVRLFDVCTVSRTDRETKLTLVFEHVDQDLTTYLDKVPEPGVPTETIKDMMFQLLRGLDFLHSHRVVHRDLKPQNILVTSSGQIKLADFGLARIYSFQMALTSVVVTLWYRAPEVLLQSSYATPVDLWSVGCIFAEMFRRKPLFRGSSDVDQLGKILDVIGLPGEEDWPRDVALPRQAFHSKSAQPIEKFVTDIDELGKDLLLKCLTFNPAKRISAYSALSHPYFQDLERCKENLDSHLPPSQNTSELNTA
T2 sequence (P24385 whole entry partner): as the sequence (P24385 whole entry partner) above
Description for Caco-2 monolayer cells: as §5, §6

Regarding `CC(C)c1c2cc(-c3nc(Nc4ccc(N5CCNCC5)cn4)ncc3F)ccc2nn1C` [Example 3, 5-fluoro-4-(3-isopropyl-2-methyl-2H-indazol-5-yl)-N-(5-(piperazin-1-yl)pyridin-2-yl) pyrimidine-2-amine], the “inhibitory activities against CDK4 compared with the reference compounds” value against CDK4/cyclin D1 was “higher inhibitory activities”. The IC50 (commonly the concentration that inhibits the measured activity by half) on CDK6/cyclin D1 was below 0.0008 µM; in the data set on MCF-7 cells it was 0.0321 µM; in the data set on MDA-MB-436 cells it was 0.328 µM. In addition, the “inhibitory activities against CDK6 compared with the reference compounds” value against CDK6/cyclin D1 is “higher inhibitory activities”. The MCF-7/MDA-MB-436 in the data set with MCF-7 cells is reported as 10.2. For the same molecule, the Tomor volumes in data set [1] (25.0 mg/kg orally daily, 0 day) is given as 187 mm^3; in data set [1] (25.0 mg/kg orally daily, 7th day) it was 249 mm^3; in data set [1] (25.0 mg/kg orally daily, 14th day), 288 mm^3; in [1] (25.0 mg/kg orally daily, 21st day), 432 mm^3. Also, the “antitumor activities in the CDX model of MCF-7 breast cancer” value in data set [1] (in words) is “significant antitumor activities”.
For `CC(C)c1c2cc(-c3nc(Nc4ccc(N5CCN(CCN)CC5)cn4)ncc3F)ccc2nn1C` [Example 9, N-[5-[4-(2-aminoethyl)piperazin-1-yl]-2-pyridyl]-5-fluoro-4-(3-isopropyl-2-methyl-2H-indazol-5-yl)pyrimidine-2-amine], on CDK4/cyclin D1, the IC50 stood at 0.00031 µM and the “inhibitory activities against CDK4 compared with the reference compounds” value is on record as “higher inhibitory activities”. Besides, at CDK6/cyclin D1, the IC50 was below 0.0008 µM and the “inhibitory activities against CDK6 compared with the reference compounds” value is “higher inhibitory activities”. The molecule further showed an IC50 against CDK2/cyclin A of 0.00595 µM. Moreover, in the data set on MCF-7 cells, the IC50 came to 0.045 µM, the MCF-7/MDA-MB-436 worked out at 14.8 and the “inhibitory activities against the proliferation of MCF-7 cells compared with the reference compounds” value is on record as “higher inhibitory activities”. Further, inhibition in the data set on MDA-MB-436 cells was half-maximal at 0.667 µM (IC50).
As to `CC(C)c1c2cc(-c3nc(Nc4ccc(N5CCN(CCO)CC5)cn4)ncc3F)ccc2nn1C` [Example 10, 2-[4-[6-[[5-fluoro-4-(3-isopropyl-2-methyl-2H-indazol-5-yl)pyrimidin-2-yl]amino]-3-pyridyl]piperazin-1-yl]ethanol], at CDK4/cyclin D1, the IC50 was found to be 0.00088 µM and the “inhibitory activities against CDK4 compared with the reference compounds” value was “higher inhibitory activities”. On CDK6/cyclin D1, the IC50 was 0.00097 µM and the “inhibitory activities against CDK6 compared with the reference compounds” value was “higher inhibitory activities”. This molecule also registered an IC50 on CDK2/cyclin A of 0.00662 µM. Further, in the data set on MCF-7 cells, the IC50 was 0.0289 µM, the MCF-7/MDA-MB-436 amounted to 17.2 and the “inhibitory activities against the proliferation of MCF-7 cells compared with the reference compounds” value was “higher inhibitory activities”. Also, the IC50 in the data set on MDA-MB-436 cells was found to be 0.496 µM.
With `CC(C)c1c2cc(-c3nc(Nc4ccc(C5CCNCC5)cn4)ncc3F)ccc2nn1C` [Example 13, 5-fluoro-4-(3-isopropyl-2-methyl-2H-indazol-5-yl)-N-[5-(piperidin-4-yl)-2-pyridyl]pyrimidine-2-amine], the “exposure in brain tissue compared with the reference compounds” value in data set [2] (rat, versus Palbociclib and LY2835219, in words, b797: 0.5 hour and 2 hour) is listed as “much higher”. The “Classification Substrates of efflux transporters” value with Caco-2 monolayer cells was “not a substrate of an efflux transporter”.
As to `CC(C)c1c2cc(-c3nc(Nc4ccc(N5C[C@@H]6C[C@H]5CN6)cn4)ncc3F)ccc2nn1C` [Example 15, N-(5-((1 S,4S)-2,5-diazabicyclo[2.2.1]heptan-2-yl)pyridin-2-yl)-5-fluoro-4-(3-isopropyl-2-methyl-2H-indazol-5-yl)pyrimidine-2-amine], on CDK4/cyclin D1, the IC50 is below 0.0003 µM and the “inhibitory activities against CDK4 compared with the reference compounds” value is listed as “higher inhibitory activities”. Moreover, at CDK6/cyclin D1, the IC50 was below 0.0008 µM and the “inhibitory activities against CDK6 compared with the reference compounds” value is on record as “higher inhibitory activities”. This molecule also displayed an IC50 on CDK2/cyclin A of 0.00282 µM. Besides, in the data set with MCF-7 cells, the IC50 was found to be 0.056 µM, the MCF-7/MDA-MB-436 came to 9.3 and the “inhibitory activities against the proliferation of MCF-7 cells compared with the reference compounds” value is “higher inhibitory activities”. In the data set with MDA-MB-436 cells, it took 0.522 µM to reach half-maximal inhibition (IC50).
In the case of `CC(C)c1c2c(nn1C)CCN(c1nc(Nc3ccc(C4CCN(C)CC4)cn3)ncc1F)C2` [Example 24], the IC50 against CDK4/cyclin D1 worked out at 0.00138 µM; at CDK6/cyclin D1, 0.00579 µM; on CDK2/cyclin A, 0.0328 µM; in the data set on MCF-7 cells it was 0.265 µM; in the data set with MDA-MB-436 cells it was 3.28 µM. In the data set with MCF-7 cells, the MCF-7/MDA-MB-436 came to 12.4.
`CCN1CCN(Cc2ccc(Nc3ncc(F)c(-c4cc(F)c5nc(C)n(C(C)C)c5c4)n3)nc2)CC1` [LY2835219, Abemaciclib, reference compound]: the MCF-7/MDA-MB-436 with MCF-7 cells was determined as 17.3. Besides, the IC50 in the data set on MDA-MB-436 cells was 1.03 µM. In addition, the results for the Exposure in brain in data set [2] (time point 0.5 h), in data set [2] (time point 2 h) and in data set [2] (time point 8 h) were 62 nmol/kg, 525 nmol/kg and 774 nmol/kg, respectively. The Tomor volumes in [1] (50.0 mg/kg orally daily, 0 day) is recorded as 187 mm^3; in [1] (50.0 mg/kg orally daily, 7th day), 261 mm^3; in [1] (50.0 mg/kg orally daily, 14th day) it was 315 mm^3; in [1] (50.0 mg/kg orally daily, 21st day), 443 mm^3. Besides, the Papp A→B – broadly, how fast a substance crosses the layer from the apical side – at 2 h, 2 μM in data set [3] was determined as 26.9 nm/s. In addition, in data set [3], the Papp B→A (usually the apparent permeability from the basolateral to the apical side of a cell layer) at 2 h, 2 μM came to 63.4 nm/s. Besides, the “Classification Permeability” value in the data set with Caco-2 monolayer cells is recorded as “High”.
